According to patent publication US6670382B2, “Hydroxyformamidine derivatives and medicines containing the same” (Taisho Pharmaceutical Co., Ltd., priority 2000, dated 2003):

Experiments:
[1] = tested on: 20-HETE synthase derived from rat kidney microsome; experiment: Inhibitory effect of 20-HETE synthase derived from rat kidney microsome; assay type: biochemical; details: SHR rat kidney microsome; for IC50: concentration at which 20-HETE production was inhibited to 50%; for Inhibition (1 µM): inhibition rate of 20-HETE production, subject compound 1 μM, 3H-arachidonic acid, NADPH, 1.5 hours at 37° C., pH 7.4
Method: [Inhibitory Effect of 20-HETE Synthase Derived from Rat Kidney Microsome]
Regarding the compounds listed in the Table described above, their inhibitory activities on production of 20-HETE were examined.
This examination was carried out based on the method described in J. Pharmacol. Exp. Ther., Vol. 268, p. 474 (1994).
The subject compound in an amount of 1 μM was added to a 50 mM of 3-morpholinopropanesulfonic acid buffer (MOPS) (pH 7.4), containing 5 mM of magnesium chloride, and 1 mM of ethylenediaminetetraacetic acid (EDTA) disodium salt.
Subsequently, the rat kidney microsome fraction prepared from the kidney of a spontaneously hypertensive rat (male, 6 weeks of age) as an enzyme, [5,6,8,9,11,12,14,15] tritium-arachidonic acid (supplied by Amasham) as a substrate, and NADPH (supplied by Sigma) as a coenzyme were added, and were reacted for 1.5 hours at 37° C.
After the reaction was quenched by adding formic acid (supplied by Wako Pure Chemical Industries Ltd.) to the reaction solution, acetonitrile (final concentration of 50%) was added thereto, and the mixture was allowed to stand for 1.5 hours at room temperature. The amount of 20-HETE production was measured by using a high performance liquid chromatography having a detector for radioactive substances (supplied by Gilson), equipped with an ODS column (Biocyl C18, supplied by Bio-rad).
Setting an amount of 20-HETE production to 100% when no subject compound was added, the inhibition rate (%) was calculated from the amount of 20-HETE production when a subject compound was added.
In addition, setting an amount of 20-HETE production to 100% when no subject compound was added, the concentration of the subject compound at which the production of the 20-HETE was inhibited to 50% when the subject compound is added (IC50 value) was also calculated.

IC50 [1] | melting point | Compound | Inhibition (1 µM) [1]
49.6 nM | – | O/N=C/Nc1ccc(OCc2ccco2)nc1 [Comp. 3] | 102.0%
14.9 nM | 128.5 to 130 °C | O/N=C/Nc1ccc(OCCc2ccccn2)nc1 [Comp. 5] | –
– | 153.5 to 155.5 °C | O/N=C/Nc1ccc(OCc2ccccn2)nc1 [Comp. 6, N-[2-(pyridin-2-ylmethoxy)pyridin-5-yl]-N′-hydroxyformamidine] | –
781 nM | 104.5 to 106 °C | COCCOc1ccc(N/C=N/O)cn1 [Comp. 7] | 41.9%
603 nM | 116.5 to 117 °C | CC(C)Oc1ccc(N/C=N/O)cn1 [Comp. 8] | 71.0%
9.1 nM | 163.5 to 164 °C | O/N=C/Nc1ccc(OCc2ccccc2)nc1 [Comp. 9] | 82.9%
167 nM | 127 to 128 °C | CCCCOc1ccc(N/C=N/O)cn1 [Comp. 10] | 106.3%
2.7 nM | – | O/N=C/Nc1ccc(OCC2CCCCC2)nc1 [Comp. 11] | 89.0%
87.2 nM | – | COCCOCCOc1ccc(N/C=N/O)cn1 [Comp. 12] | 99.0%
24 nM | – | CC1(C)OCC(COc2ccc(N/C=N/O)cn2)O1 (centres unmarked) [Comp. 13] | 101.0%
1.5 nM | – | O/N=C/Nc1ccc(OCCCc2ccccc2)nc1 [Comp. 14] | 104.0%
9.3 nM | – | O/N=C/Nc1ccc(OCc2cccs2)nc1 [Comp. 15] | 100.0%
– | – | CCN(CC)CCOc1ccc(N/C=N/O)cn1 [Comp. 16] | 60.0%
2.1 nM | – | Cc1ncsc1CCOc1ccc(N/C=N/O)cn1 [Comp. 17] | 100.0%
– | – | CC(C)=CCOc1ccc(N/C=N/O)cn1 [Comp. 18] | 86.0%
– | – | CC(C)OCCOc1ccc(N/C=N/O)cn1 [Comp. 19] | 104.0%
– | – | C#CCCOc1ccc(N/C=N/O)cn1 [Comp. 20] | 31.0%
– | – | O/N=C/Nc1ccc(OCC2CC2)nc1 [Comp. 21] | 73.0%
2.1 nM | – | O/N=C/Nc1ccc(OCCC2CCCCC2)nc1 [Comp. 22] | 108.0%
3.9 nM | – | O/N=C/Nc1ccc(OCc2ccncc2)nc1 [Comp. 23] | 104.0%
9.6 nM | – | O/N=C/Nc1ccc(OCCSc2ccccn2)nc1 [Comp. 25] | 71.0%

IC50 [1] | melting point | Compound | Inhibition (1 µM) [1]
27.2 nM | – | O/N=C/Nc1ccc(OCC2CCC2)nc1 [Comp. 26] | 99.0%
– | – | O/N=C/Nc1ccc(OCCOC2CCCCC2)nc1 [Comp. 27] | 71.0%
9.9 nM | – | CCSCCOc1ccc(N/C=N/O)cn1 [Comp. 28] | 105.0%
– | – | O/N=C/Nc1ccc(OCCCCC2CCCCC2)nc1 [Comp. 29] | 101.0%
– | – | CC(C)(C)CCOc1ccc(N/C=N/O)cn1 [Comp. 30] | 102.0%
2.1 nM | – | O/N=C/Nc1ccc(OCCCc2cccnc2)nc1 [Comp. 33] | 93.0%
7.6 nM | – | CC1(C)COC(CCOc2ccc(N/C=N/O)cn2)OC1 [Comp. 34] | 89.0%
– | – | O/N=C/Nc1ccc(OCC2CC3CCC2C3)nc1 (centres unmarked) [Comp. 35] | 98.0%
2.7 nM | – | O/N=C/Nc1ccc(OCCCOc2ccccc2)nc1 [Comp. 36] | 104.0%
3.4 nM | – | O/N=C/Nc1ccc(OCCCc2ccncc2)nc1 [Comp. 37] | 96.0%
8.5 nM | – | O/N=C/Nc1ccc(OCc2ccsc2)nc1 [Comp. 38] | 95.0%
– | – | CC(C)(C)COc1ccc(N/C=N/O)cn1 [Comp. 39] | 62.0%
– | – | O/N=C/Nc1ccc(OCc2ccoc2)nc1 [Comp. 40] | 86.0%
– | – | Cc1cccc(COc2ccc(N/C=N/O)cn2)n1 [Comp. 41] | 83.0%
– | – | CCCCCCOc1ccc(N/C=N/O)cn1 [Comp. 42] | 105.8%
– | – | CCCCCCCOc1ccc(N/C=N/O)cn1 [Comp. 43] | 89.5%
– | – | CCCCCCCCOc1ccc(N/C=N/O)cn1 [Comp. 44] | 100.7%
10.7 nM | 143 to 144.5 °C | C/C=C/COc1ccc(N/C=N/O)cn1 [Comp. 45] | 80.3%
– | – | CCC(C)CCOc1ccc(N/C=N/O)cn1 (centres unmarked) [Comp. 48] | 102.8%
– | – | CC(C)CCCOc1ccc(N/C=N/O)cn1 [Comp. 49] | 107.1%
– | – | O/N=C/Nc1ccc(OCCCCCc2ccccc2)nc1 [Comp. 50] | 108.2%

IC50 [1] | melting point | Compound | Inhibition (1 µM) [1]
– | – | CC(C)=CCC/C(C)=C\COc1ccc(N/C=N/O)cn1 [Comp. 51] | 111.0%
– | – | CC(C)=CCC/C(C)=C/COc1ccc(N/C=N/O)cn1 [Comp. 52] | 108.7%
– | – | O/N=C/Nc1ccc(OCC2CCCCCC2)nc1 [Comp. 57] | 114.2%
– | – | C/C=C/C=C/COc1ccc(N/C=N/O)cn1 [Comp. 58] | 106.6%
– | – | Cc1ccc(CCOc2ccc(N/C=N/O)cn2)cc1 [Comp. 60] | 109.9%
– | – | CC(=O)OCCOc1ccc(N/C=N/O)cn1 [Comp. 62] | 112.8%
– | – | COc1ccc(CCCOc2ccc(N/C=N/O)cn2)cc1OC [Comp. 63] | 102.3%
– | – | COc1ccc(CCCOc2ccc(N/C=N/O)cn2)cc1 [Comp. 64] | 100.7%
– | – | O/N=C/Nc1ccc(OCCc2ccc(Br)cc2)nc1 [Comp. 67] | 108.6%
– | – | CCOC(=O)CCCCCOc1ccc(N/C=N/O)cn1 [Comp. 68] | 102.6%
– | – | CC(C)=CCCC(C)CCOc1ccc(N/C=N/O)cn1 (centres unmarked) [Comp. 70] | 108.1%
– | – | O/N=C/Nc1ccc(OCCCCc2ccccc2)nc1 [Comp. 71] | 99.0%
– | – | O/N=C/Nc1ccc(OCc2ccc(Cl)cc2Cl)nc1 [Comp. 74] | 69.3%
– | – | O/N=C/Nc1ccc(OCc2ccccc2CCc2ccccc2)nc1 [Comp. 75] | 88.5%
– | – | O/N=C/Nc1ccc(OCc2cccc(Oc3ccccc3)c2)nc1 [Comp. 76] | 100.2%
– | – | Cc1cccc(COc2ccc(N/C=N/O)cn2)c1 [Comp. 79] | 100.6%
– | – | COC(=O)c1ccc(COc2ccc(N/C=N/O)cn2)cc1 [Comp. 83] | 98.8%
– | – | O/N=C/Nc1ccc(OCc2ccc(-c3ccccc3)cc2)nc1 [Comp. 84] | 105.3%
– | – | CCN(CCOc1ccc(N/C=N/O)cn1)c1cccc(C)c1 [Comp. 85] | 100.8%
– | – | COC(=O)COc1ccc(N/C=N/O)cn1 [Comp. 86] | 82.6%
– | – | Cn1c(=O)c2c(ncn2CCOc2ccc(N/C=N/O)cn2)n(C)c1=O [Comp. 88] | 71.8%

IC50 [1] | melting point | Compound | Inhibition (1 µM) [1]
4.3 nM | – | O/N=C/Nc1ccc(OCCn2cccc2)nc1 [Comp. 90] | 105.7%
– | – | O/N=C/Nc1ccc(OCCSc2ccccc2)nc1 [Comp. 95] | 96.5%
– | – | O/N=C/Nc1ccc(SCc2ccc(Cl)cc2)nc1 [Comp. 100] | 79.5%
– | – | O/N=C/Nc1ccc(SC2CCCCC2)nc1 [Comp. 101] | 91.8%
– | – | CCOC(=O)CSc1ccc(N/C=N/O)cn1 [Comp. 103] | 79.9%
– | – | CCCCSc1ccc(N/C=N/O)cn1 [Comp. 105] | 100.5%
– | – | CC(C)CCSc1ccc(N/C=N/O)cn1 [Comp. 106] | 77.5%
– | – | COC(=O)CSc1ccc(N/C=N/O)cn1 [Comp. 108] | 89.7%
– | – | CCCCCSc1ccc(N/C=N/O)cn1 [Comp. 112] | 101.5%
– | – | CCCCCCSc1ccc(N/C=N/O)cn1 [Comp. 113] | 81.3%
– | – | CCCCCCCSc1ccc(N/C=N/O)cn1 [Comp. 114] | 85.1%
– | – | CCCCCCCCCSc1ccc(N/C=N/O)cn1 [Comp. 115] | 89.0%
– | – | COC(=O)CCSc1ccc(N/C=N/O)cn1 [Comp. 116] | 93.1%
– | – | CCOC(=O)CCSc1ccc(N/C=N/O)cn1 [Comp. 118] | 100.7%
624 nM | – | CCN(CC)CCOCCOc1ccc(N/C=N/O)cn1 [Comp. 122] | 99.6%
– | 153.5 to 154.5 °C | CN(C)CCSc1ccc(N/C=N/O)cn1 [Comp. 126] | –
– | 109 to 111 °C | CCN(CC)CCC(Oc1ccc(N/C=N/O)cn1)C(F)(F)F (centres unmarked) [Comp. 129] | –
– | 122 °C (dec.) | CCN(CC)CCCC(C)Oc1ccc(N/C=N/O)cn1 (centres unmarked) [Comp. 130] | –
– | 105 to 106 °C | CN(C)CCOc1ccc(N/C=N/O)cn1 [Comp. 131] | –
– | 91 to 93 °C | CC(C)(COc1ccc(N/C=N/O)cn1)CN1CCCCC1 [Comp. 134] | –
